{
  "source": "paper PMC6351562",
  "about": "“Structure, function, and inhibition of drug reactivating human gut microbial β-glucuronidases” (Scientific Reports, 2019)",
  "assay_in_all_cases": "In vitro DCF-G processing assay (UPLC)",
  "format_in_all_cases": "biochemical",
  "key": {"E. coli GUS (EcGUS)": {"target": "E. coli GUS (EcGUS) (Escherichia coli, UniProt P05804)", "sequence (P05804 whole entry)": "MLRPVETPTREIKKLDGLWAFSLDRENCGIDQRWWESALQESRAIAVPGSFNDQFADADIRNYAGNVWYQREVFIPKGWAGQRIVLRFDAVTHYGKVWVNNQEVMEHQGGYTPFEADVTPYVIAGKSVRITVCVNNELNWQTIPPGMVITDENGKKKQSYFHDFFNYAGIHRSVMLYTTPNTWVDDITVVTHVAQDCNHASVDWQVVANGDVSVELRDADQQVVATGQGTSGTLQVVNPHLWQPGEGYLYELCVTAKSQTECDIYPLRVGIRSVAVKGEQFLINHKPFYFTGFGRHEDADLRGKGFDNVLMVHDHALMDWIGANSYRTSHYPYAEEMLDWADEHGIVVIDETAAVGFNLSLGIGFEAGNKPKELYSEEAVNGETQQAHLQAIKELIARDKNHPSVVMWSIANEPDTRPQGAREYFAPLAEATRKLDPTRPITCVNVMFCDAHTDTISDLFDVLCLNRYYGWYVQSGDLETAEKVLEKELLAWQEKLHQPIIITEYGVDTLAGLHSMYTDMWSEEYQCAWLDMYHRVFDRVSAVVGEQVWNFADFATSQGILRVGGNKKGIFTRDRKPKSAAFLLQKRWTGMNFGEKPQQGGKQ", "conditions": "DCF-G as substrate, 400 µM; pH 7.4; 37 °C", "source_text": "(§1) While pNPG serves as a useful tool to assess the glucuronide processing capabilities of GUS enzymes, it is not a substrate present in the GI tract. Given our hypothesis that L1 GUS enzymes efficiently process drug glucuronides, we determined using ultra performance liquid chromatography (UPLC) the cleavage rates of the novel L1 GUS enzymes FpGUS, LrGUS, RgGUS, as well as the ten additional enzymes in our GUS panel, with the physiologically relevant glucuronide metabolite of the NSAID diclofenac, DCF-G (Table 3 and Fig. S11).\n(§2) Diclofenac acyl β-D-glucuronide (DCF-G) was purchased as a solid (LC Scientific Inc., Concord ON) and resuspended in DMSO to a concentration of 25 mM. […] The pH of each reaction was chosen based on the optimal pH determined for each GUS with pNPG. Reactions were quenched at 0, 1, 2, 3, 4, and 5 min with 50 µL of 25% trichloroacetic acid (TCA). For PmGUS, reactions were quenched at 0, 10, 20, 30, 40, and 50 min. After centrifugation at 13,000xg for 10 min, the resultant supernatant was subjected to UPLC analysis. The concentration of DCF-G remaining at each time point was quantified on a Waters Acquity H-class liquid chromatograph system. Samples were separated on a Waters Acquity UPLC BEH C18 column (2.1 × 50 mm, 1.7 µm particle size) at 40 °C. The flow rate was 0.6 mL/min, and the injection volume was 3 µL. LC conditions were set at 100% water with 0.1% formic acid (A) ramped linearly over 9.8 mins to 95% acetonitrile with 0.1% formic acid (B) and held until 10.2 mins. At 10.21 mins the gradient was switched back to 100% A and allowed to re-equilibrate until 11.25 mins. DCF-G was monitored at 280 nm. The concentration of DCF-G was determined from a standard curve (0–500 µM DCF-G in assay buffer). Control reactions were performed in which enzyme was substituted with buffer. Background hydrolysis was not observed at each pH tested. Reactions were performed in triplicate for each enzyme."}, "[1]": {"target": "T1, Streptococcus agalactiae GUS (SaGUS) (Streptococcus agalactiae serotype V, UniProt Q8E0N2)", "T1 construct": "6x His; made in house", "T1 sequence (Q8E0N2 whole entry)": "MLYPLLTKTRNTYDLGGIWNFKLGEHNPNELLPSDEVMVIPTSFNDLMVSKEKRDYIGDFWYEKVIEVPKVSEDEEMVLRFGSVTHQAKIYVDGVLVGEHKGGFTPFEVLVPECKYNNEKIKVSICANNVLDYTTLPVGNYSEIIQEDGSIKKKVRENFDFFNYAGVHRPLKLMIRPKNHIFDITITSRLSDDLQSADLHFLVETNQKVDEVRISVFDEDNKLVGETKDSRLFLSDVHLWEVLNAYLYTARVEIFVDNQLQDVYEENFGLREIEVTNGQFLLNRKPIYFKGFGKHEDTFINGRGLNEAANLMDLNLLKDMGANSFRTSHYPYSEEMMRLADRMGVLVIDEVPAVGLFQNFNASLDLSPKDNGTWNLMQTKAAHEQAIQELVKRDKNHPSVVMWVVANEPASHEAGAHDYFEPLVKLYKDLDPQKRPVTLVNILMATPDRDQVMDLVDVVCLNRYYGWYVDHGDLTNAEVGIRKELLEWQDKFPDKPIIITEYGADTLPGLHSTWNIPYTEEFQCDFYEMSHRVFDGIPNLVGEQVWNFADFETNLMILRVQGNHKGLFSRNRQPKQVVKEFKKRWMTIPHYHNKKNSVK", "conditions": "DCF-G as substrate, 400 µM; pH 6.5; 37 °C", "source_text": "as §1, §2"}, "[2]": {"target": "Bacteroides fragilis GUS (BfGUS) (Bacteroides fragilis, UniProt Q5LIC7)", "sequence (Q5LIC7 whole entry)": "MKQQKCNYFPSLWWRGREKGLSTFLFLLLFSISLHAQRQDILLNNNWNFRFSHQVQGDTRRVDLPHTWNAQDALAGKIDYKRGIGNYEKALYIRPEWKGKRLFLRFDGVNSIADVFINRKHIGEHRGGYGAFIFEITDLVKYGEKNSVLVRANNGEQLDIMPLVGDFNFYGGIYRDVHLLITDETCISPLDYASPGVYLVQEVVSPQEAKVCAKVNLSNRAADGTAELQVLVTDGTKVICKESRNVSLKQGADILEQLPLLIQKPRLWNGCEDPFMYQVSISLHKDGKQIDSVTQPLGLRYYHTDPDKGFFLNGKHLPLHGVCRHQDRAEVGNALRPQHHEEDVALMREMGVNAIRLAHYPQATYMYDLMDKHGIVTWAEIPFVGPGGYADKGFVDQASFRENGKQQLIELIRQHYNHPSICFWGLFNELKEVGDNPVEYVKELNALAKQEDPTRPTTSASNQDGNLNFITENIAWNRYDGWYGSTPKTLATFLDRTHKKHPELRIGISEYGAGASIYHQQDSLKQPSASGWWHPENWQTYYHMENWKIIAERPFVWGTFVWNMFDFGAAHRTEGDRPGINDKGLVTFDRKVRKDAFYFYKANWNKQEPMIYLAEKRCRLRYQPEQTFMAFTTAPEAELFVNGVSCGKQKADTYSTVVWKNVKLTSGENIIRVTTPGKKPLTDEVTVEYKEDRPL", "conditions": "DCF-G as substrate, 400 µM; pH 5.0; 37 °C", "source_text": "as §1, §2"}},
  "note": "Values joined by “and” are separate entries in the source; they are usually repeats but may differ in a detail not shown here. Equal values may be shown once.",
  "data": [
    {"molecule": "O=C(Cc1ccccc1Nc1c(Cl)cccc1Cl)O[C@@H]1O[C@H](C(=O)O)[C@@H](O)[C@H](O)[C@H]1O", "note": "[DCF-G, Diclofenac acyl β-D-glucuronide]", "values": [
      {"measurement": "Apparent kcat", "setting": "E. coli GUS (EcGUS)", "result": "30.7 s⁻¹ and 30.7 ± 0.7 s⁻¹"},
      {"measurement": "Apparent kcat", "setting": "[1]", "result": "97 s⁻¹ and 97 ± 5 s⁻¹"},
      {"measurement": "Apparent kcat", "setting": "[2]", "result": "15.1 s⁻¹ and 15.1 ± 0.5 s⁻¹"}
    ]}
  ]
}
